According to patent publication US12680102B2, “miRNAS for reducing ventricle enlargement” (St. Jude Children's Research Hospital, Inc., priority 2019, dated 2026):

How the values were obtained:
Drd1 = biological target: T1, Drd1 (Mus musculus, UniProt Q61616); assay: Ex vivo ciliary beating frequency (CBF) in brain slices, Drd1 agonist/antagonist bath-applied; assay type: cell-based; details: SKF81297 10 μM bath-applied, slices from 4- to 5-month-old WT mice, vs vehicle (DMSO)
T1 construct: coronal brain sections (300-μm) were collected in L-15 Leibovitz media; from tissue; host or cells: acute coronal mouse brain slices (300 µm); ciliated ependymal cells of the lateral ventricle wall; WT and Dgcr8+/- mice
Protocol: Ex Vivo Ciliary Beating Frequency Measurements. For ex vivo measurement of CBF, coronal brain sections (300-μm) were collected in L-15 Leibovitz media (Thermo Fisher Scientific) and placed in 37° C., 95%/5% O2/CO2 chamber. Image sequences of CBF were acquired by linescan analysis using an LD C-Apochromat 40× objective water-immersion lens (1.1 NA) in LSM780 confocal microscope (Zeiss AxioObserver). Slices were scanned through a line perpendicular to the axis of the cilia in the Xt mode along this line with an acquisition rate of 529 frames/second (512×1 frame size, 1.89-ms scan time, 5,000 cycles). Transmitted DIC and fluorescence emitted by GFP or Alexa Fluor 488 were collected with a 488- to 568-nm bandpass filter. Fluorescence excitation and transmitted illumination were provided by a 488-nm argon gas laser. The Drd1 agonist (SKF81297, 10 μM; Tocris, Minneapolis, MN) and antagonist (SCH23390, 10 μM; Tocris) were bath-applied once per slice. Five minutes after the agonist or antagonist was applied, the CBF was measured.

[1] = test system: luciferase reporter encoding miRNA sponge; assay: Luciferase assay validating miRNA sponges in Neuro 2a cells; assay type: cell-based, mouse; details: pGIPZ vector encoding the miRNA vs control pGIPZ
Text: FIGS. 13A-13B. Validation of the miRNA Sponges, Related to FIGS. 6A-6H. (FIG. 13A) Luciferase activity measured in Neuro 2a cells transfected with luciferase reporter vector alone, luciferase reporter vector encoding miR-382-3p sponges (two-tailed Student's t-test; t4=1.62, p=0.18) containing two (t4=23.00, *p<0.001), four (t4=24.35, *p<0.001), or six (t4=9.17, *p<0.001) miRNA-binding sites or scrambled sites (t4=2.36, p=0.08) in the presence of control pGIPZ vector or pGIPZ vector encoding miR-382-3p. Based on these experiments, the miR-382-3p sponge with six seed sites was chosen for in vivo experiments. (FIG. 13B) Luciferase activity in Neuro2a cells transfected with luciferase reporter vector alone, luciferase reporter vector encoding miR-674-3p sponges (t4=14.13, *p<0.001) containing two (t4=14.25, *p<0.001), four (t4=80.70, *p<0.001), or six miRNA-binding sites (t4=26.67, *p<0.001), or scrambled (t4=1.11, p=0.33) sites in the presence of control pGIPZ vector or pGIPZ vector encoding miR-674-3p. Data are shown as the mean±S.E.M.
Generation of miRNA Sponge Constructs. The miR-382-3p and miR-674-3p sponges were generated as described previously (Chun et al., 2017). […]

T1 sequence (Q61616 whole entry): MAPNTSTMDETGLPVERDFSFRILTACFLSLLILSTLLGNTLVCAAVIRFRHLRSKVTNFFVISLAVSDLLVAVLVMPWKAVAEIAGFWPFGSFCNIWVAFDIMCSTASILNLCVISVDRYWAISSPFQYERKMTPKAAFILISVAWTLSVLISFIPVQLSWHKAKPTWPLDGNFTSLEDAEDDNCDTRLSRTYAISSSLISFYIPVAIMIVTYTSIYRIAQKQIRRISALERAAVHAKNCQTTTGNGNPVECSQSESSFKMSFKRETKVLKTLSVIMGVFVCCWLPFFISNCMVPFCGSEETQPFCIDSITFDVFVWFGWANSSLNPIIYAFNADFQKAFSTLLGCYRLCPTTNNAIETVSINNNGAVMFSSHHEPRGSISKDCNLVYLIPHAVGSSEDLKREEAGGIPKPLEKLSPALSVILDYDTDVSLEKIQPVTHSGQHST

| Compound | ependymal CBF (Drd1) | inhibition of reporters containing the sponge sequence (luciferase activity) [1] |
| --- | --- | --- |
| Oc1cc2c(c(Cl)c1O)CCNCC2c1ccccc1 (centres unmarked) [SKF81297] | slowed ependymal CBF compared to vehicle treatment |  |
| miR-674-3p: mature mouse miRNA CACAGCUCCCAUCUCAGAACAA (SEQ ID NO: 3); in FIG. 13 expressed from pGIPZ vector (listed as Mus musculus) |  | effectively inhibited reporters containing the sponge sequence in vitro |
